In US7271288B2, “Aromatic compounds” (Kyushu University, National University Corporation, priority 2002, dated 2007):

Columns and labels:
Gelation test = type: physicochemical; set-up: key to gelation ability: I = insoluble; S = soluble; P = precipitate; G = gel; pG = partial gel; details: for gelation ability: 10 mM, 30 minutes at room temperature
Experimental: To a septum-capped test tube (i.d. 5 mm) were added compounds 1 or 2 and a solvent (100 μl) so that the concentration of the resultant solution was 10 mM and the solution was sonicated and heated with a heat gun until the solid was dissolved. After standing for 30 minutes at room temperature, the sample was turned upside down and judged visually. […] The samples with no observed gel formation were subjected to standing at a lower temperature for further judgment.

[1] = Solubility observed when preparing samples for fluorescence measurement; type: physicochemical
Experimental: Gels were prepared from compounds 1 and 2 with cyclohexane (hereinafter referred to as cyclohexane gel(s)). The concentration of compound 1 or 2 in cyclohexane was adjusted to 5 mM. Chloroform solutions of compounds 1, 2 and 3 (5×10^−5 M) were also prepared. The fluorescence spectroscopic measurement was carried out for each gel. The excitation wavelength λex for the measurements was 340 nm.
As both compounds 1 and 2 were soluble in hot cyclohexane, solid samples were prepared by dissolving the compounds in cyclohexane followed by removing the solvent with a rotary evaporator at room temperature. Each of the solid samples thus prepared was then subjected to fluorescence spectroscopic measurement. As shown in FIG. 8 and FIG. 9, the difference in the spectra reflecting the difference in the gel was also observed in the solid state. Therefore, it was confirmed that the assembly structure of the gel is maintained even in the solid state.

gelation ability (Gelation test; Benzene) | gelation ability (Gelation test; Carbon tetrachloride) | gelation ability (Gelation test; Chloroform) | gelation ability (Gelation test; Cyclohexane) | gelation ability (Gelation test; Diphenyl ether) | gelation ability (Gelation test; Ethanol) | gelation ability (Gelation test; Ethyl acetate) | gelation ability (Gelation test; Hexane) | gelation ability (Gelation test; Hexanol) | gelation ability (Gelation test; Octane) | gelation ability (Gelation test; Tetrahydrofuran) | gelation ability (Gelation test; Toluene) | gelation ability (Gelation test; p-Xylene) | solubility ([1]; hot cyclohexane) | SMILES | gelation (Gelation test; solvents not specified) | solubility (Gelation test; solvents not specified) | solubility ([1]; chloroform) | solubility ([1]; cyclohexane)
S | S | S | G | S | I | I | G | P | G | S | S | G | soluble | CCCCCCCCCCCCNC(=O)COc1cc2c3cc(OCC(=O)NCCCCCCCCCCCC)c(OCC(=O)NCCCCCCCCCCCC)cc3c3cc(OCC(=O)NCCCCCCCCCCCC)c(OCC(=O)NCCCCCCCCCCCC)cc3c2cc1OCC(=O)NCCCCCCCCCCCC [Compound 1] | – | – | – | –
P | S | S | pG | S | I | I | I | I | I | P | P | P | soluble | CCCCNC(=O)COc1cc2c3cc(OCC(=O)NCCCC)c(OCC(=O)NCCCC)cc3c3cc(OCC(=O)NCCCC)c(OCC(=O)NCCCC)cc3c2cc1OCC(=O)NCCCC [Compound 2] | – | – | – | –
– | – | – | – | – | – | – | – | – | – | – | – | – | – | CCCCCCCCCCCCOc1cc2c3cc(OCCCCCCCCCCCC)c(OCCCCCCCCCCCC)cc3c3cc(OCCCCCCCCCCCC)c(OCCCCCCCCCCCC)cc3c2cc1OCCCCCCCCCCCC [Compound 3, reference compound] | no gelation was observed | high solubility | soluble | soluble
